Data: patent US9533991B2, “Inhibitors of Bruton's tyrosine kinase” (PHARMACYCLICS LLC, priority 2014, dated 2017)
pIC50: −log10 of the molar value.

Columns and labels:
Type in all cases: biochemical
Btk [1] = target: T1, Btk (Homo sapiens, UniProt Q06187); experiment: Btk in vitro inhibitory activity (Method A, B or C); parameters: purified from insect cells as a full-length construct containing a N-terminal 6×-His tag; His6 (N); made in house; host or cells: insect cells (baculovirus, Sf21); conditions: one of the methods of Example 53a, 53b, 53c
T1 sequence (Q06187 whole entry): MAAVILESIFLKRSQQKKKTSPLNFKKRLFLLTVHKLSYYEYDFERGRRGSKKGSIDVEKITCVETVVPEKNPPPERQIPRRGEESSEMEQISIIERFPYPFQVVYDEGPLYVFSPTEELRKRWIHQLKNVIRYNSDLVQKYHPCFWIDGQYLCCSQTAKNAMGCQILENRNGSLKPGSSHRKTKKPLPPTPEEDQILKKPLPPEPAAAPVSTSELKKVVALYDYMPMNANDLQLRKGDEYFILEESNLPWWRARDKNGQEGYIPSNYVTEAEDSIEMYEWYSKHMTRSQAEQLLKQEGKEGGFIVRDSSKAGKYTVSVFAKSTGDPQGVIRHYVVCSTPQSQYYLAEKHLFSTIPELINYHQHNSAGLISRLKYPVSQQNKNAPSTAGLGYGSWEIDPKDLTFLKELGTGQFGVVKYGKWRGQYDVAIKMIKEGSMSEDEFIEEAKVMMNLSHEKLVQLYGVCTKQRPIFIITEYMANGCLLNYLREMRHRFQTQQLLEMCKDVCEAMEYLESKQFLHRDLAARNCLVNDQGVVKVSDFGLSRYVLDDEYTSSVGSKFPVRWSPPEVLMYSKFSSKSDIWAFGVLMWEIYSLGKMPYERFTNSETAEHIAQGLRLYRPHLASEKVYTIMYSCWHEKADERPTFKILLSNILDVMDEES
Description: Btk kinase activity is determined using a time-resolved fluorescence resonance energy transfer (TR-FRET) methodology. Measurements are performed in a reaction volume of 50 μL using 96-well assay plates. Kinase enzyme, inhibitor, ATP (at the Km for the kinase), and 1 μM peptide substrate (Biotin-AVLESEEELYSSARQ-NH2 (SEQ ID NO: 1)) are incubated in a reaction buffer composed of 20 mM Tris, 50 mM NaCl, MgCl2 (5-25 mM depending on the kinase), MnCl2 (0-10 mM), 1 mM DTT, 0.1 mM EDTA, 0.01% bovine serum albumin, 0.005% Tween-20, and 10% DMSO at pH 7.4 for one hour. The reaction is quenched by the addition of 1.2 equivalents of EDTA (relative to divalent cation) in 25 μL of 1× Lance buffer (Perkin-Elmer). Streptavidin-APC (Perkin-Elmer) and Eu-labeled p-Tyr100 antibody (Perkin-Elmer) in 1× Lance buffer are added in a 25 μL volume to give final concentrations of 100 nM and 2.5 nM, respectively, and the mixture is allowed to incubate for one hour. The TR-FRET signal is measured on a multimode plate reader with an excitation wavelength (λEx) of 330 nm and detection wavelengths (λEm) of 615 and 665 nm. Activity is determined by the ratio of the fluorescence at 665 nm to that at 615 nm. For each compound, enzyme activity is measured at various concentrations of compound. Negative control reactions are performed in the absence of inhibitor in replicates of six, and two no-enzyme controls are used to determine baseline fluorescence levels. Inhibition constants, Ki(app), ware obtained using the program BatchKi (Kuzmic et al. (2000), Anal. Biochem. 286:45-50). IC50s are obtained according to the equation: IC50={Ki(app)/1+[ATP]/Km^ATP)}+[E]total/2;
For all kinases, [ATP]=Km^ATP, [Btk]total=0.5 nM and [Lck]total=6 nM.
Kinase activity is measured in vitro using electrophoretic mobility shift assay. The kinase reactions are assembled in a total volume of 25 μL in 384 well plates. The reactions comprise: BTK enzyme (1 nM, N-terminal His6-tagged, recombinant, full-length, human BTK purified from baculovirus Sf21 insect cell system), inhibitor, ATP (16 μM, the apparent Km for the kinase), fluorescently labeled peptide substrate (1 μM, FAM-GEEPLYWSFPAKKK-NH2 (SEQ ID NO: 2)) in a reaction buffer composed of 100 mM HEPES, pH7.5, 5 mM MgCl2 1 mM DTT, 0.1% bovine serum albumin, 0.01% Triton X-100, and 1% DMSO. The reaction is incubated for one hour and is quenched by the addition of 45 μL of termination buffer (100 mM HEPES, pH7.5, 0.01% Triton X-100, 30 mM EDTA). The terminated reactions are analyzed using 12 channel LabChip® 3000 microfluidic detection instrument (Caliper Life Sciences). The enzymatic phosphorylation of the peptide results in a change in net charge, enabling electrophoretic separation of product from substrate peptide. As substrate and product peptides are separated, two peaks of fluorescence are observed. Change in the relative fluorescence intensity of the substrate and product peaks is the parameter measured, reflecting enzyme activity. In the presence of an inhibitor, the ratio between product and substrate is altered: the signal of the product decreases, while the signal of the substrate increases.
Activity in each sample is determined as the product to sum ratio (PSR):P/(S+P), where P is the peak height of the product peptide and S is the peak height of the substrate peptide. For each compound, enzyme activity is measured at various concentrations (12 concentrations of compound spaced by 3× dilution intervals). Negative control samples (0%−inhibition in the absence of inhibitor) and positive control samples (100%−inhibition, in the presence of 20 mM EDTA) are assembled in replicates of four and are used to calculate %−inhibition values for each inhibitor at each concentration. Percent inhibition (Pinh) is determined using following equation: […]

EGFR = EGFR (Homo sapiens, UniProt P00533); experiment: Inhibition of a panel of kinases: EGFR; conditions: kinase panel, Table 2
EGFR, sequence (P00533 25-1210, species assumed): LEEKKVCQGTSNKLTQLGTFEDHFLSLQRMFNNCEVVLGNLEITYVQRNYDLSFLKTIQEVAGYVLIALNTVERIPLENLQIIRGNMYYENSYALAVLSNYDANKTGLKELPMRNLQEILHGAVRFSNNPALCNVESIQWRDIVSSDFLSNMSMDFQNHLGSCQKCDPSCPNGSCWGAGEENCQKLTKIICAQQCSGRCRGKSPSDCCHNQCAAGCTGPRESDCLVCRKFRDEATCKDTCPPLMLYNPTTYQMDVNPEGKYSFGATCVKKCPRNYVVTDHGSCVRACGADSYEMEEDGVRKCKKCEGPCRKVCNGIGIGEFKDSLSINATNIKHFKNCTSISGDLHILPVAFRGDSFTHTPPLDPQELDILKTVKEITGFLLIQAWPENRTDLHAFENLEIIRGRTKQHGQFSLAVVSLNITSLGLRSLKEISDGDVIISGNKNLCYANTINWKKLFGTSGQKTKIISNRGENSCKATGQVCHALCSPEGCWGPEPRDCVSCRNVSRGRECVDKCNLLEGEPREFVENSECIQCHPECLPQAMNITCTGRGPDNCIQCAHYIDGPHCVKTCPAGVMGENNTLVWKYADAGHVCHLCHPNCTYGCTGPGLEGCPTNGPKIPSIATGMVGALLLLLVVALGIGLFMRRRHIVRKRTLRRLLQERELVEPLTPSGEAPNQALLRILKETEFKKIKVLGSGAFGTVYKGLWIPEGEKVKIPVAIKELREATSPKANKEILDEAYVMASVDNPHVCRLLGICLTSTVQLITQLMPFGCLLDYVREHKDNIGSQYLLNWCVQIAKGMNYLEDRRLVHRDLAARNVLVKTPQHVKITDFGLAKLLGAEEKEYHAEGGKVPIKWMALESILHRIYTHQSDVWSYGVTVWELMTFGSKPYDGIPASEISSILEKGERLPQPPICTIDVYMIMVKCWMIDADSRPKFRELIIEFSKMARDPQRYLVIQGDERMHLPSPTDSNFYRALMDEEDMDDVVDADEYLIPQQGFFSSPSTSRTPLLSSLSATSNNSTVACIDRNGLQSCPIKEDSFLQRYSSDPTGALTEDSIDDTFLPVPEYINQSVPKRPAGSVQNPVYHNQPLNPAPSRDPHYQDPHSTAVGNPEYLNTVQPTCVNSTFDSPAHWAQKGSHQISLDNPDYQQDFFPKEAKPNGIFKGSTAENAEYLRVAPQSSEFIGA
Description: (§1) The degree of inhibition of a panel of kinases is determined using assays similar to the kinase assay described in Example 53.

LCK = LCK (Homo sapiens, UniProt P06239); experiment: Inhibition of a panel of kinases: LCK; conditions: kinase panel, Table 2
LCK, sequence (P06239 whole entry, species assumed): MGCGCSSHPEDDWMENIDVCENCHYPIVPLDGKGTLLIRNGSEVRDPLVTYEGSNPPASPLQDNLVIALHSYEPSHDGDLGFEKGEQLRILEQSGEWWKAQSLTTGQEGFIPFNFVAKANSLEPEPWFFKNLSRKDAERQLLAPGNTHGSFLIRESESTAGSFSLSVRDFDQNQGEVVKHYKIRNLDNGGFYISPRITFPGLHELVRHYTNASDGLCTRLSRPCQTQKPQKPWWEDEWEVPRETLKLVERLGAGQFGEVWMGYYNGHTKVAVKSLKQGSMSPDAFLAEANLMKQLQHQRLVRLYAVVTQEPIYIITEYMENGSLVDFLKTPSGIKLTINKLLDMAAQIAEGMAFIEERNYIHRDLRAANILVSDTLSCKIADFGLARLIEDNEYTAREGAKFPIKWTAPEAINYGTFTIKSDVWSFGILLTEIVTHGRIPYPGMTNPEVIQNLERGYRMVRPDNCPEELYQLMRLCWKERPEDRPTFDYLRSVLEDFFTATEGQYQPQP
Description: as §1

JAK3 = target: T2, JAK3 (Homo sapiens, UniProt P52333); experiment: Inhibition of a panel of kinases: JAK3; conditions: kinase panel, Table 2
T2 sequence (P52333 1-1124): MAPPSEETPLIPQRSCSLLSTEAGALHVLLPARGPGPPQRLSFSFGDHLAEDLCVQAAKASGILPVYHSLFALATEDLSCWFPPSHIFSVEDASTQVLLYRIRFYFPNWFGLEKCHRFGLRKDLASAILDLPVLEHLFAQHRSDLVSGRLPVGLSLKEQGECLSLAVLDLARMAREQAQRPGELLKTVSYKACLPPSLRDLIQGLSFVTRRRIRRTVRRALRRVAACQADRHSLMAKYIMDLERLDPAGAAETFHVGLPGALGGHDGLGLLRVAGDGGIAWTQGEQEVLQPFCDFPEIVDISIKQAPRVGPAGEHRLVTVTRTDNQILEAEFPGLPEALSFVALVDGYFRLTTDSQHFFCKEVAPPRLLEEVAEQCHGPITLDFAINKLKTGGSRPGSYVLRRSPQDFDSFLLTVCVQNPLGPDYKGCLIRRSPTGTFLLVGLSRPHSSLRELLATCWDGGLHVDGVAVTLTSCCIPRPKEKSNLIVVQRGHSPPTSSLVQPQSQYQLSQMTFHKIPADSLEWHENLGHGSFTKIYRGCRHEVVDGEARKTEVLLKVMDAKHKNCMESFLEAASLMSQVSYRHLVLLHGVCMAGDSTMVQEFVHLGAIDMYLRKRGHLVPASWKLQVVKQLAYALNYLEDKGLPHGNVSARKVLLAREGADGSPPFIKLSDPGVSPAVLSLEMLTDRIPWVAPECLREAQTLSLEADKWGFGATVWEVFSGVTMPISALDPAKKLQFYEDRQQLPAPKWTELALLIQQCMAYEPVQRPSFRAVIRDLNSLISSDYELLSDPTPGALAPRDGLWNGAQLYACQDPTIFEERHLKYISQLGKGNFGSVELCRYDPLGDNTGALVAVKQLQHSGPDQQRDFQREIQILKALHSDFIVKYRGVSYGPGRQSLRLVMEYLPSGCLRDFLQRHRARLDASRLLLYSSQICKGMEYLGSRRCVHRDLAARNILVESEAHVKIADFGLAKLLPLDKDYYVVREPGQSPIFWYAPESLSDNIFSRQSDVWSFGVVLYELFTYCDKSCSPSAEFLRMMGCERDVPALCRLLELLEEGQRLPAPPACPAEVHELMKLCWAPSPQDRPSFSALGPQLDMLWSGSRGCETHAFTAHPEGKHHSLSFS
Description: as §1

Btk [2] = target: T1, Btk; experiment: Inhibition of a panel of kinases: Btk; conditions: kinase panel, Table 2
Description: as §1

| SMILES | pIC50 (Btk [1]) | pIC50 (EGFR) | pIC50 (LCK) | pIC50 (JAK3) | pIC50 (Btk [2]) |
| --- | --- | --- | --- | --- | --- |
| CC#CC(=O)N1CC[C@@H](n2nc(-c3ccc(C(=O)Nc4cc(C#N)ccn4)cc3)c3c(N)ncnc32)C1 [Compound ID 5, (R)-4-(4-amino-1-(1-but-2-ynoylpyrrolidin-3-yl)-1H-pyrazolo[3,4-d]pyrimidin-3-yl)-N-(4-cyanopyridin-2-yl)benzamide] | ≥ 8.00 | < 6.00 | 6.00 to 7.00 | < 6.00 | ≥ 8.00 |
| Cc1ccnc(NC(=O)c2ccc(-c3nn([C@@H]4CCN(C(=O)C#CC5CC5)C4)c4ncnc(N)c34)cc2)c1 [Compound ID 8, (R)-4-(4-amino-1-(1-(3-cyclopropylpropioloyl)pyrrolidin-3-yl)-1H-pyrazolo[3,4-d]pyrimidin-3-yl)-N-(4-methylpyridin-2-yl)benzamide] | ≥ 8.00 | 6.00 to 7.00 | < 6.00 | < 6.00 | ≥ 8.00 |
| CC#CC(=O)N1CC[C@@H](n2nc(-c3ccc(C(=O)Nc4ccccn4)cc3)c3c(N)ncnc32)C1 [Compound ID 3, (R)-4-(4-amino-1-(1-but-2-ynoylpyrrolidin-3-yl)-1H-pyrazolo[3,4-d]pyrimidin-3-yl)-N-(pyridin-2-yl)benzamide] | ≥ 8.00 | 6.00 to 7.00 | 7.00 to 8.00 | < 6.00 | ≥ 8.00 |
| CC#CC(=O)N1CC[C@@H](n2nc(-c3ccc(C(=O)Nc4cc(C)ccn4)cc3)c3c(N)ncnc32)C1 [Compound ID 2, (R)-4-(4-amino-1-(1-but-2-ynoylpyrrolidin-3-yl)-1H-pyrazolo[3,4-d]pyrimidin-3-yl)-N-(4-methylpyridin-2-yl)benzamide] | ≥ 8.00 | < 6.00 | 6.00 to 7.00 | < 6.00 | ≥ 8.00 |
| CC#CC(=O)N1CCC[C@@H](n2nc(-c3ccc(C(=O)Nc4cc(C(C)C)ccn4)cc3)c3c(N)ncnc32)C1 [Compound ID 6, (R)-4-(4-amino-1-(1-but-2-ynoylpiperidin-3-yl)-1H-pyrazolo[3,4-d]pyrimidin-3-yl)-N-(4-isopropylpyridin-2-yl)benzamide] | ≥ 8.00 | < 6.00 | 6.00 to 7.00 | < 6.00 | ≥ 8.00 |
| CC#CC(=O)N1CCC[C@@H](n2nc(-c3ccc(C(=O)Nc4nccs4)cc3)c3c(N)ncnc32)C1 [Compound ID 16, (R)-4-(4-amino-1-(1-but-2-ynoylpiperidin-3-yl)-1H-pyrazolo[3,4-d]pyrimidin-3-yl)-N-(thiazol-2-yl)benzamide] | ≥ 8.00 | 7.00 to 8.00 | 7.00 to 8.00 | – | ≥ 8.00 |
| CC#CC(=O)N1CC[C@@H](n2nc(-c3ccc(C(=O)Nc4cc(C(C)C)ccn4)cc3)c3c(N)ncnc32)C1 [Compound ID 4, (R)-4-(4-amino-1-(1-but-2-ynoylpyrrolidin-3-yl)-1H-pyrazolo[3,4-d]pyrimidin-3-yl)-N-(4-isopropylpyridin-2-yl)benzamide] | ≥ 8.00 | < 6.00 | 6.00 to 7.00 | < 6.00 | ≥ 8.00 |
| CC#CC(=O)N1CC[C@@H](n2nc(-c3ccc(C(=O)Nc4cc(CCC)ccn4)cc3)c3c(N)ncnc32)C1 [Compound ID 9, (R)-4-(4-amino-1-(1-but-2-ynoylpyrrolidin-3-yl)-1H-pyrazolo[3,4-d]pyrimidin-3-yl)-N-(4-propylpyridin-2-yl)benzamide] | ≥ 8.00 | ≥ 8.00 | 6.00 to 7.00 | – | ≥ 8.00 |
| CC#CC(=O)N1CC[C@@H](n2nc(-c3ccc(C(=O)Nc4cc(C(F)(F)F)ccn4)cc3)c3c(N)ncnc32)C1 [Compound ID 1, (R)-4-(4-amino-1-(1-but-2-ynoylpyrrolidin-3-yl)-1H-pyrazolo[3,4-d]pyrimidin-3-yl)-N-(4-(trifluoromethyl)pyridin-2-yl)benzamide] | ≥ 8.00 | 6.00 to 7.00 | 6.00 to 7.00 | < 6.00 | ≥ 8.00 |
| CC#CC(=O)N1CCC[C@@H](n2nc(-c3ccc(C(=O)Nc4cc(CCC)ccn4)cc3)c3c(N)ncnc32)C1 [Compound ID 13, (R)-4-(4-amino-1-(1-but-2-ynoylpiperidin-3-yl)-1H-pyrazolo[3,4-d]pyrimidin-3-yl)-N-(4-propylpyridin-2-yl)benzamide] | ≥ 8.00 | 6.00 to 7.00 | ≥ 8.00 | – | ≥ 8.00 |
| CCC#CC(=O)N1CC[C@@H](n2nc(-c3ccc(C(=O)Nc4cc(C)ccn4)cc3)c3c(N)ncnc32)C1 [Compound ID 7, (R)-4-(4-amino-1-(1-pent-2-ynoylpyrrolidin-3-yl)-1H-pyrazolo[3,4-d]pyrimidin-3-yl)-N-(4-methylpyridin-2-yl)benzamide] | ≥ 8.00 | < 6.00 | < 6.00 | < 6.00 | ≥ 8.00 |
